Test results taken from patent US12180307B2, “Interleukin-13 binding cyclic oligopeptides and methods of use thereof” (B.A.I. LABORATORIES, LLC, priority 2022, dated 2024).
Where “and” joins values, the source holds several entries; their conditions need not be identical. Equal values may be shown once. Square brackets hold non-standard residues; d marks the D form. Peptide text beside a SMILES is read from it.

Tests used:
[1] = Skin permeability, Franz Cell diffusion cell with artificial skin, Transdermal Diffusion Tester, BCA assay; format: in vitro ADME; details: for Average Permeation Rate After 1 Hour (%) / Average Permeation Rate After 24 Hours (%): 32° C., 1.0 mg/mL in PBS; for Average Permeation Rate After 1 Hour (%) / Papp at 1 h, 1 mg/mL: after 1 hour; for Papp at 1 h, 1 mg/mL: read-out: Average Permeability Coefficient (Kp) After 1 hour (converted)
Procedure: As used herein, the term “skin permeation rate” of a cyclic oligopeptide is measured using artificial skin (Start M, Merck), and refers to the percentage of the cyclic oligopeptide that penetrate the artificial skin after certain amount of time. For example, if 60% of the total amount of a cyclic oligopeptide of this disclosure has penetrated the artificial skin after 24 hours, then the skin permeation rate of the cyclic oligopeptide is 60% after 24 hours.
As used herein, the term “skin permeability coefficient (Kp)” refers to the rate at which the cyclic oligopeptide penetrates the skin, as measured using artificial skin (Start M, Merck). In some embodiments, permeability coefficient (Kp)(cm/hr) is calculated with the following equation:
[formula] wherein Q(mg) refers to the total amount of cyclic oligopeptide that pass through the artificial skin within a certain amount of time; A(cm^2) refers to the internal cross-section area of the artificial skin in a diffusion cell; T(hr) refers to the total amount of time of cyclic oligopeptide permeation; and ΔC(mg/mL) refers to the concentration difference of the cyclic oligopeptide between the two sides of the artificial skin. In some embodiments, the diffusion cell is a Franz Cell.
Skin permeability of the cyclic oligopeptides generated in Example 1 was measured using Transdermal Diffusion Tester (TK-12D, Shanghai Kai Kai Industrial Co Ltd) and artificial skin (Start M, Merck). Three parallel experimental groups were set up for each sample. The skin permeability of cyclic oligopeptides was evaluated by the following steps: • 1) 2.0 mg cyclic oligopeptide was weighed and dissolved in 100 μL DMSO. Three parallel experimental groups were set up for each cyclic oligopeptide. The cyclic oligopeptide-containing solution was then slowly added dropwise to 1900 μL 1×PBS solution and mixed evenly to prepare a PBS solution with a final concentration of 1.0 mg/mL cyclic polypeptide. • 2) A magnetron was inserted into a Franz Cell diffusion cell, and an artificial skin was sandwiched in the middle of the diffusion cell with the smooth side of the artificial skin facing up. The diffusion cell was then fixed with clamps after assembly. • 3) 7.75 ml 1×PBS solution were then added to the diffusion cell without generating bubbles in the diffusion cell. The sampling port of the diffusion cell was then sealed with parafilm to reduce evaporation. • 4) The temperature of a Transdermal Diffusion Tester was then set to 32° C., and the magneton speed was set to 180 r/min. • 5) The assembled diffusion cell was then put into the Transdermal Diffusion Tester and preheated for 5-10 mins. • 6) 400 μL of 1.0 mg/mL cyclic oligopeptide solution prepared in step 1) was then added to the upper chamber of the diffusion cell, making it evenly dispersed on the surface of the artificial skin without air bubbles. The top port of the diffusion cell was then covered with parafilm to reduce evaporation. • 7) Starting from the time of adding the cyclic oligopeptide solution, samples of about 0.5 mL of the receiving solution were taken at six time points, 1 h, 2 h, 4 h, 8 h, 12 h and 24 h, using a plastic dropper to take out the samples from the sampling port of the diffusion cell. 0.5 mL of 1×PBS solution was added into the diffusion cell to restore the initial volume of the receiving solution. When sampling, the diffusion cell was tilted appropriately to avoid the generation of bubbles. The samples were then numbered and store at −20° C. • 8) A BCA Assay (Micro BCA Protein Assay Kit, Thermo Scientific) was conducted to measure the concentration of cyclic oligopeptide in samples obtained in step 7) (Actual Concentration of the cyclic oligopeptide at the particular time point). Three parallel groups were used. The weight of cyclic oligopeptide in each sample obtained in step 7) equals to Actual Concentration×0.5 mL. • 9) Permeation rate of each cyclic oligopeptide at each time point was calculated according to the following equation: […]

FIG. 9D = test: FIG. 9D
Procedure: Table printed on a drawing sheet, FIG. 9D
The patent's description of the figure: FIG. 9A provides the MS spectrum for Compound 8. FIG. 9B provides the HPLC chromatogram for Compound 8. FIG. 9C provides SPR assay curves showing the binding affinity of Compound 8 for IL-13, the x-axis represents time of reaction and y-axis represents altitude of response (Response Units). FIG. 9D illustrates skin permeation rate of Compound 8 for up to 24 hours. FIG. 9E illustrates average permeability coefficient (Kp) of Compound 8 for 1, 2, 4, 8, 12 and 24 hours.
First reader's note: The substance name is taken from the legend of the plot printed above the table in the same figure; the values are three replicate permeation rates, their average and their range.

FIG. 12D = test: FIG. 12D
Procedure: Table printed on a drawing sheet, FIG. 12D
The patent's description of the figure: FIG. 12A provides the MS spectrum for Compound 11. FIG. 12B provides the HPLC chromatogram for Compound 11. FIG. 12C provides SPR assay curves showing the binding affinity of Compound 11 for IL-13, the x-axis represents time of reaction and y-axis represents altitude of response (Response Units). FIG. 12D illustrates skin permeation rate of Compound 11 for up to 24 hours. FIG. 12E illustrates average permeability coefficient (Kp) of Compound 11 for 1, 2, 4, 8, 12 and 24 hours.
First reader's note: The substance name is taken from the legend of the plot printed above the table on the same sheet; the last column is the range (max minus min) of the three replicates.

Human IL-13 = Human IL-13 (Homo sapiens, UniProt P35225); test: Surface plasmon resonance (SPR) binding assay, BIAcore 8K plus, immobilized Fc-tagged IL-13; details: 25° C., human IL-13 with Fc-tag immobilized on CM5 chip, read-out: Binding Affinity (KD) for IL-13
Procedure: A SPR assay was conducted to determine the binding affinity of the cyclic oligopeptides generated in Example 1 for IL-13 using a BIAcore 8K plus instrument (GE Healthcare). Human IL-13 with an Fc-tag was immobilized onto the surfaces of Series S Sensor CM5 (GE Healthcare) chips in the range of 5000 resonance units (RU). The binding kinetics were performed at 25° C. with a flow rate of 30 μL/min. The cyclic oligopeptides were analyzed in running buffer comprising 20 mM PBS, 2.7 mM KCl, […], 0.0500 Surfactant P20, pH 7.4, 1% DMSO, starting at 100 μM with gradient of ten two-fold dilutions using solvent correction mode.
FIGS. 2C, 3C, 4C, 5C, 6C, 7C, 8C, 9C, 10C, 11C, and 12C provide SPR response curves for the cyclic oligopeptides generated in Example 1, wherein the x-axis represents time of reaction and y-axis represents altitude of response (Response Units).

FIG. 8D = test: FIG. 8D
Procedure: Table printed on a drawing sheet, FIG. 8D
The patent's description of the figure: FIG. 8A provides the MS spectrum for Compound 7. FIG. 8B provides the HPLC chromatogram for Compound 7. FIG. 8C provides SPR assay curves showing the binding affinity of Compound 7 for IL-13, the x-axis represents time of reaction and y-axis represents altitude of response (Response Units). FIG. 8D illustrates skin permeation rate of Compound 7 for up to 24 hours. FIG. 8E illustrates average permeability coefficient (Kp) of Compound 7 for 1, 2, 4, 8, 12 and 24 hours.
First reader's note: The substance name Compound 7 comes from the legend of the plot printed above the table; the values are skin permeation over time in three replicates with their average and range.

FIG. 11D = test: FIG. 11D
Procedure: Table printed on a drawing sheet, FIG. 11D
The patent's description of the figure: FIG. 11A provides the MS spectrum for Compound 10. FIG. 11B provides the HPLC chromatogram for Compound 10. FIG. 11C provides SPR assay curves showing the binding affinity of Compound 10 for IL-13, the x-axis represents time of reaction and y-axis represents altitude of response (Response Units). FIG. 11D illustrates skin permeation rate of Compound 10 for up to 24 hours. FIG. 11E illustrates average permeability coefficient (Kp) of Compound 10 for 1, 2, 4, 8, 12 and 24 hours.
First reader's note: The substance name comes from the legend of the plot above the table; columns 2-4 are three replicate permeation measurements, followed by their average and range.

FIG. 10D = test: FIG. 10D
Procedure: Table printed on a drawing sheet, FIG. 10D
The patent's description of the figure: FIG. 10A provides the MS spectrum for Compound 9. FIG. 10B provides the HPLC chromatogram for Compound 9. FIG. 10C provides SPR assay curves showing the binding affinity of Compound 9 for IL-13, the x-axis represents time of reaction and y-axis represents altitude of response (Response Units). FIG. 10D illustrates skin permeation rate of Compound 9 for up to 24 hours. FIG. 10E illustrates average permeability coefficient (Kp) of Compound 9 for 1, 2, 4, 8, 12 and 24 hours.
First reader's note: The substance name is taken from the legend of the plot printed above the table; three replicate permeation values, their average and their range per time point.

Human IL-13, sequence (P35225 25-146): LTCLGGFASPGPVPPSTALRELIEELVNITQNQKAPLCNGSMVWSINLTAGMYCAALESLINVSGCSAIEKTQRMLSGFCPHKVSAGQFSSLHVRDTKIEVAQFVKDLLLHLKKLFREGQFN

| Average Permeation Rate After 1 Hour (%) [1] [%] | Papp at 1 h, 1 mg/mL [1] [×10⁻⁶ cm/s] | Papp at 24 h, 1 mg/mL ([1]; after 24 hours, read-out: Average Permeability Coefficient (Kp) After 24 hours) [×10⁻⁶ cm/s] | Permeation Avg. (%) (FIG. 9D) | Permeation Avg. (%) (FIG. 12D) | Kd (Human IL-13) [µM] | Permeation Avg. (%) (FIG. 11D) | Permeation Avg. (%) (FIG. 10D) | SMILES | Average Permeation Rate After 24 Hours (%) ([1]; after 24 hours) | Permeation Avg. (%) (FIG. 8D) |
| --- | --- | --- | --- | --- | --- | --- | --- | --- | --- | --- |
| 12.44 | 7.39 | > 0.0278 | 17.57% and 23.24% and 27.76% and 32.33% | – | – | – | – | CSCC[C@@H]1NC(=O)[C@H](Cc2c[nH]c3ccccc23)NC(=O)[C@@H]2CCCN2C(=O)[C@H](CCC(=O)O)NC(=O)[C@H](CCCNC(=N)N)NC(=O)[C@@H](CC(C)C)NC(=O)[C@@H]2CCCN2C1=O [Compound 8, D-Leu Arg Glu Pro Trp Met Pro] (cyclo(EPWMP[dL]R)) | 35.20 | – |
| 11.77 | 7.22 | – | – | 15.61% and 19.18% and 21.74% and 23.90% | 622 | – | – | CC(C)C[C@@H]1NC(=O)[C@@H](C(C)C)NC(=O)[C@@H](Cc2c[nH]c3ccccc23)NC(=O)[C@@H](CC(C)C)NC(=O)[C@@H]2CCCN2C(=O)[C@H](C(C)C)NC(=O)[C@@H]2CCCN2C(=O)[C@H](CCCNC(=N)N)NC1=O [Compound 11, Val Pro D-Leu D-Trp D-Val Leu Arg Pro] (cyclo(LRPVP[dL][dW][dV])) | – | – |
| 18.96 | 11.7 | – | – | – | 368 | 29.18% and 39.99% and 47.96% and 56.44% | – | N=C(N)NCCC[C@@H]1NC(=O)[C@H]2CCCN2C(=O)[C@@H](Cc2c[nH]c3ccccc23)NC(=O)[C@H]2CCCN2C(=O)[C@H](CS)NC(=O)[C@H](Cc2ccc(O)cc2)NC(=O)[C@H](CC(=O)O)NC1=O [Compound 10, Arg Asp Tyr Cys D-Pro D-Trp D-Pro] (cyclo(C[dP][dW][dP]RDY)) | – | – |
| – | 14 | – | – | – | 337 | – | 31.10% and 41.93% and 48.23% and 55.09% | CC(C)C[C@@H]1NC(=O)[C@@H](CCCNC(=N)N)NC(=O)[C@@H]2CCCN2C(=O)[C@H](CCC(=O)O)NC(=O)[C@@H]([C@H](C)O)NC(=O)[C@H](Cc2c[nH]c3ccccc23)NC(=O)[C@@H](Cc2c[nH]c3ccccc23)NC1=O [Compound 9, D-Arg Leu D-Trp Trp D-Thr Glu Pro] (cyclo(EP[dR]L[dW]W[dT])) | – | – |

| SMILES | Average Permeation Rate After 1 Hour (%) [1] [%] | Papp at 1 h, 1 mg/mL [1] [×10⁻⁶ cm/s] | Papp at 24 h, 1 mg/mL ([1]; after 24 hours, read-out: Average Permeability Coefficient (Kp) After 24 hours) [×10⁻⁶ cm/s] | Permeation Avg. (%) (FIG. 9D) | Permeation Avg. (%) (FIG. 12D) | Kd (Human IL-13) [µM] | Permeation Avg. (%) (FIG. 11D) | Permeation Avg. (%) (FIG. 10D) | Average Permeation Rate After 24 Hours (%) ([1]; after 24 hours) | Permeation Avg. (%) (FIG. 8D) |
| --- | --- | --- | --- | --- | --- | --- | --- | --- | --- | --- |
| CC(C)C[C@H]1NC(=O)[C@@H]2CCCN2C(=O)[C@@H](Cc2ccccc2)NC(=O)[C@H](CCCNC(=N)N)NC(=O)[C@H]([C@@H](C)O)NC(=O)[C@H]2CCCN2C1=O [Compound 7, Thr Arg D-Phe Pro D-Leu D-Pro] (cyclo(P[dL][dP]TR[dF])) | – | 15.2 | – | – | – | 85.1 | – | – | 38.84 | 28.31% and 31.36% and 33.66% and 36.74% |
